{
  "source": "patent US20090148883A1",
  "about": "“BIOMARKER FOR ASSESSING RESPONSE TO FMS TREATMENT” (priority 2007, published 2009)",
  "key": {"[1]": {"tested_on": "bone marrow derived macrophages (BMDM)", "assay": "Clearance of CSF-1 by bone marrow derived macrophages in vitro (CSF-1 ELISA of conditioned media)", "format": "cell-based, mouse", "details": "for Reduction of rate of CSF-1 consumption: slopes through 4.9 hours", "experimental": "COMPOUND 1 was provided as a 10 mM stock in dimethyl sulfoxide (DMSO).Recombinant mouse CSF-1 (416 mL 050) and mouse CSF-1 ELISA (MNC00) were both purchased from R&D Systems Inc., (Minneapolis, Minn.). Mouse bone marrow-derived macrophage (BMDM) were prepared and were plated into 12 well plates in the presence of culture media (αMEM containing 10% FCS and glutamine PenStrep) and 25 ng/mL CSF-1 for three days until approximately 60% confluency was achieved. The cultures were then washed twice with media without CSF-1, and cultured for 2 hrs in the absence of CSF-1 to allow the macrophages to consume CSF-1 that may have been residual to the wells. The cultures were next adjusted to contain CSF-1 and COMPOUND 1 as indicated in Table 1 (Experimental Design) and incubation was continued at 37° C. and 5% CO2. […] At timed-intervals (0, 1.1, 2.3, 4.9, 10.3, 19.9, 29, and 44 hours) 50 μl of conditioned media were removed from each well and saved under refrigeration. After harvest of the last time point, all samples were subjected to CSF-1 ELISA. CSF-1 concentrations (pg/mL) vs time were plotted for each well using linear linear and log linear formats. Consumption was log linear over the first 4.9-hours. Excel was used to calculate a best fit linear equation describing CSF-1 consumption for each well through 4.9 hours and slopes were used to determine the relative rates of consumption."}, "[2]": {"assay": "Tolerability in rats, Example 2", "format": "in vivo", "details": "5 or 15 mg/kg COMPOUND 2 or 40 mg/kg COMPOUND 1, po bid, 5 consecutive days", "experimental": "Groups of female Sprague Dawley rats (n=5) were orally administered 5 or 15 mg/kg of COMPOUND 2 or 40 mg/kg COMPOUND 1 twice per day for 5 consecutive days to characterize compound tolerability. Additional groups of rats, treated with vehicle or 40 mg/kg COMPOUND 1, were terminated one hour after the a.m. dose on Days 1 and 3 for interim analysis of various parameters. Post-mortem analysis of all treated animals included standard necropsy with liver histology evaluation as well as standard hematology and serology. None of the animals were found dead or were euthanized (moribund) prior to scheduled termination. None of the treatments affected body weight or the organ:body weight ratio of selected organs (i.e., liver, thymus, spleen & uterus). […] Both compounds, at the highest dose tested, decreased the number of macrophages in the uterus (up to ˜60% for COMPOUND 2) on Day 5 however, this parameter was highly variable. […]\nOn Days 1 & 3, one hour after a.m. dose, five rats from Groups 1 and 4 were euthanized using CO2 asphyxiation and exsanguinated via cardiac puncture. […] The macrophage content of the uterus was determined immunohistochemically using a macrophage-specific (ED-1) antibody. […]"}, "[3]": {"tested_on": "CSF-1", "assay": "Plasma CSF-1 biomarker in rats, Example 2 (po bid 5 days)", "format": "in vivo, rat", "details": "40 mg/kg po bid, control ~75 pg/ml", "experimental": "(§1) Groups of female Sprague Dawley rats (n=5) were orally administered 5 or 15 mg/kg of COMPOUND 2 or 40 mg/kg COMPOUND 1 twice per day for 5 consecutive days to characterize compound tolerability. Additional groups of rats, treated with vehicle or 40 mg/kg COMPOUND 1, were terminated one hour after the a.m. dose on Days 1 and 3 for interim analysis of various parameters. Post-mortem analysis of all treated animals included standard necropsy with liver histology evaluation as well as standard hematology and serology. None of the animals were found dead or were euthanized (moribund) prior to scheduled termination. None of the treatments affected body weight or the organ:body weight ratio of selected organs (i.e., liver, thymus, spleen & uterus). […] Both compounds, at the highest dose tested, decreased the number of macrophages in the uterus (up to ˜60% for COMPOUND 2) on Day 5 however, this parameter was highly variable.\nOn Day 0, the rats were ear tagged, randomized into the treatment groups (Groups 1 & 4: n=15, Groups 2 & 3: n=5), weighed and treated (po, bid) with either vehicle (20% HPbCD) or the test articles as delineated in Table 2 (Allocation of Treatment Groups).\n(§2) On Days 1 & 3, one hour after a.m. dose, five rats from Groups 1 and 4 were euthanized using CO2 asphyxiation and exsanguinated via cardiac puncture. Blood samples (˜500 μL) were transferred to separate ethylenediaminetetraacetic acid (EDTA) microtainers and a complete blood count (CBC) was conducted using the Advia 120 Hematology System (Bayer Diagnostics, Tarrytown, N.Y.). Additional blood samples were transferred to separate microtainers (with or without anticoagulant) and processed for biomarker (i.e., MCSF-1) and serologic (i.e., AST/ALT) analysis. The liver and thymus were weighed and discarded. The spleens were weighed and zap-frozen and the uteri (without ovaries attached) were weighed and fixed in 10% buffered formalin. The macrophage content of the uterus was determined immunohistochemically using a macrophage-specific (ED-1) antibody.\nOn Day 5, rats were euthanized using carbon dioxide and exsanguinated via cardiac puncture. Blood samples (˜500 μL) were collected and processed as described above for CBC, biomarker analysis and serology. The liver, spleen, thymus and uterus (without ovaries attached) were isolated, weighed and fixed in buffered formalin. The right knee with femur attached was isolated, trimmed and fixed in formalin. The left femur was isolated for determination of bone marrow cell counts. Liver histopathology was also conducted.\nDifferences between treated and control groups were analyzed statistically by ANOVA with a Dunnett's Multiple Comparison post-test. (p value; *:<0.05, **:<0.01)."}, "[4]": {"tested_on": "CSF-1", "assay": "Plasma CSF-1 after single ascending oral doses in healthy male subjects (Human CSF-1 ELISA)", "format": "in vivo", "details": "individual subjects (placebo subjects not identified); for Plasma CSF-1 Fold Change from Baseline: 1200 mg single oral dose cohort", "experimental": "The safety and tolerability of single ascending, oral doses of COMPOUND 1 in healthy male subjects was assessed. Blood samples were collected on Day 1 predose and at 2, 4, 8, 12, 24 and 48 hours postdose and assessed for biomarker. Analysis of the biomarker was performed for all subjects receiving at least one dose of COMPOUND 1 or placebo as set forth in Table 5.\n4 mL venous blood samples were collected on Day 1, within 60 minutes (predose), 2, 4, 8, 12, 24, and 48 hours postdose and 3 mL on Day 1 predose, 2 and 8 hours postdose for assessment of the effect of COMPOUND 1 on plasma CSF-1.\nPlasma CSF-1 levels were measured using R&D Systems Human CSF-1 ELISA. Samples were diluted 1:5 for assay. Assay range for standards is 31-2000 pg/mL. Maximum measurable plasma concentration is ˜10000 pg/ml. Current maximum measured concentration ˜4000 pg/ml."}, "[5]": {"tested_on": "ED-1 positive macrophages in the uterus", "assay": "Macrophage content of the uterus (ED-1 immunohistochemistry) in rats, Example 2", "format": "in vivo, rat", "details": "highest dose tested (COMPOUND 2 15 mg/kg, COMPOUND 1 40 mg/kg po bid), Day 5; highly variable", "experimental": "as §1, §2\nOn Day 5, rats were euthanized using carbon dioxide and exsanguinated via cardiac puncture. […]\nDifferences between treated and control groups were analyzed statistically by ANOVA with a Dunnett's Multiple Comparison post-test. […]"}, "[6]": {"tested_on": "BMDM", "assay": "CSF-1-induced BMDM proliferation", "format": "cell-based", "details": "Mus musculus, data not shown, read-out: IC50 for inhibition of CSF-1-induced BMDM proliferation"}},
  "note": "“And” between values parts separate entries of the source, which are not always exact repeats. Identical values can stand only once.",
  "data": [
    {"molecule": "CN(C)CC(=O)N1CCC(c2ccc(NC(=O)c3nc(C#N)c[nH]3)c(C3=CCCCC3)c2)CC1.Cl", "note": "[COMPOUND 1]", "values": [
      {"measurement": "Reduction of rate of CSF-1 consumption", "setting": "[1]; 0.001 μM, 1 ng/mL CSF-1", "value": 16, "unit": "%"},
      {"measurement": "Reduction of rate of CSF-1 consumption", "setting": "[1]; 0.01 μM, 1 ng/mL CSF-1", "value": 56, "unit": "%"},
      {"measurement": "Reduction of rate of CSF-1 consumption", "setting": "[1]; 0.1 μM, 1 ng/mL CSF-1", "value": 64, "unit": "%"},
      {"measurement": "Portion of CSF-1 clearance not inhibited", "setting": "[1]; 1 uM", "value": "~36", "unit": "%"},
      {"measurement": "Reduction of rate of CSF-1 consumption", "setting": "[1]; 1 μM, 1 ng/mL CSF-1", "value": 64, "unit": "%"},
      {"measurement": "IC50", "setting": "[1]; Mus musculus, BMDM, 1 ng/mL CSF-1, read-out: Half-maximal inhibition of CSF-1 consumption", "value": "1 to 10", "unit": "nM"},
      {"measurement": "Portion of CSF-1 clearance that can be inhibited", "setting": "[1]; based on consumption rates, plateau", "value": "~64", "unit": "%"},
      {"measurement": "Effect on appearance, behavior, body weight or organ:body weight ratio (liver, spleen, thymus)", "setting": "[2]", "value": "did not have an observable effect"},
      {"measurement": "Mean plasma CSF-1 level", "setting": "[3]; Day 1", "value": 112, "unit": "pg/mL"},
      {"measurement": "Mean plasma CSF-1 level", "setting": "[3]; Day 3", "value": 314, "unit": "pg/mL"},
      {"measurement": "Mean plasma CSF-1 level", "setting": "[3]; Day 5", "value": 526, "unit": "pg/mL"},
      {"measurement": "Plasma CSF-1 Fold Change from Time 0", "setting": "[4]; 150 mg single oral dose cohort, 2 hours postdose", "value": "1.8 fold (2×) and 2.5 fold and 2.0 fold and 0.8 fold (2×) and 0.9 fold"},
      {"measurement": "Plasma CSF-1 Fold Change from Time 0", "setting": "[4]; 150 mg single oral dose cohort, 4 hours postdose", "value": "2.2 fold and 1.8 fold and 1.9 fold (2×) and 0.8 fold (2×) and 0.9 fold"},
      {"measurement": "Plasma CSF-1 Fold Change from Time 0", "setting": "[4]; 150 mg single oral dose cohort, 8 hours postdose", "value": "1.4 fold and 2.5 fold and 1.6 fold and 1.0 fold and 0.8 fold and 1.7 fold and 0.7 fold"},
      {"measurement": "Plasma CSF-1 Fold Change from Time 0", "setting": "[4]; 150 mg single oral dose cohort, 12 hours postdose", "value": "1.5 fold and 1.6 fold and 2.4 fold and 0.9 fold and 0.8 fold and 1.7 fold and 0.7 fold"},
      {"measurement": "Plasma CSF-1 Fold Change from Time 0", "setting": "[4]; 150 mg single oral dose cohort, 24 hours postdose", "value": "1.4 fold and 1.3 fold and 1.2 fold and 2.0 fold and 0.9 fold and 1.8 fold and 0.7 fold"},
      {"measurement": "Plasma CSF-1 Fold Change from Time 0", "setting": "[4]; 150 mg single oral dose cohort, 48 hours postdose", "value": "1.2 fold and 1.1 fold and 1.0 fold and 0.8 fold and 1.8 fold and 1.4 fold and 0.6 fold"},
      {"measurement": "Plasma CSF-1 Fold Change from Time 0", "setting": "[4]; 300 mg single oral dose cohort, 2 hours postdose", "value": "4.6 fold and 0.8 fold and 3.3 fold and 2.7 fold and 0.9 fold and 5.2 fold and 3.4 fold and 1.8 fold"},
      {"measurement": "Plasma CSF-1 Fold Change from Time 0", "setting": "[4]; 300 mg single oral dose cohort, 4 hours postdose", "value": "4.4 fold (2×) and 1.4 fold and 3.0 fold and 0.7 fold and 6.8 fold and 4.5 fold and 2.6 fold"},
      {"measurement": "Plasma CSF-1 Fold Change from Time 0", "setting": "[4]; 300 mg single oral dose cohort, 8 hours postdose", "value": "3.8 fold and 0.9 fold and 3.4 fold and 3.0 fold and 1.5 fold and 6.4 fold and 4.1 fold and 1.9 fold"},
      {"measurement": "Plasma CSF-1 Fold Change from Time 0", "setting": "[4]; 300 mg single oral dose cohort, 12 hours postdose", "value": "2.6 fold and 0.8 fold and 2.2 fold and 3.8 fold and 0.9 fold and 4.5 fold and 3.0 fold and 1.4 fold"},
      {"measurement": "Plasma CSF-1 Fold Change from Time 0", "setting": "[4]; 300 mg single oral dose cohort, 24 hours postdose", "value": "1.9 fold and 0.9 fold and 1.5 fold (3×) and 1.7 fold and 2.1 fold and 1.1 fold"},
      {"measurement": "Plasma CSF-1 Fold Change from Time 0", "setting": "[4]; 300 mg single oral dose cohort, 48 hours postdose", "value": "2.3 fold and 1.0 fold and 1.4 fold (2×) and 0.9 fold and 2.2 fold and 1.2 fold and 0.8 fold"},
      {"measurement": "Plasma CSF-1 Fold Change from Time 0", "setting": "[4]; 600 mg single oral dose cohort, 2 hours postdose", "value": "7.5 fold and 0.7 fold and 2.9 fold and 5.0 fold and 0.9 fold and 6.0 fold and 4.8 fold and 2.3 fold"},
      {"measurement": "Plasma CSF-1 Fold Change from Time 0", "setting": "[4]; 600 mg single oral dose cohort, 4 hours postdose", "value": "8.7 fold and 1.2 fold"},
      {"measurement": "Plasma CSF-1 Fold Change from Baseline", "setting": "[4]; 2 hours postdose", "value": "5.4 fold and 4.9 fold and 0.8 fold and 4.4 fold (2×) and 6.8 fold and 0.5 fold and 3.5 fold"},
      {"measurement": "Plasma CSF-1 Fold Change from Baseline", "setting": "[4]; 4 hours postdose", "value": "8.9 fold and 8.4 fold and 1.0 fold and 7.6 fold and 9.5 fold and 5.9 fold and 0.4 fold and 5.3 fold"},
      {"measurement": "Plasma CSF-1 Fold Change from Baseline", "setting": "[4]; 8 hours postdose", "value": "9.9 fold and 9.8 fold and 1.0 fold and 11.3 fold and 13.4 fold and 6.9 fold and 0.4 fold and 7.8 fold"},
      {"measurement": "Plasma CSF-1 Fold Change from Baseline", "setting": "[4]; 12 hours postdose", "value": "9.2 fold and 5.2 fold and 2.1 fold and 10.5 fold and 8.8 fold and 5.8 fold and 0.4 fold and 6.0 fold"},
      {"measurement": "Plasma CSF-1 Fold Change from Baseline", "setting": "[4]; 24 hours postdose", "value": "4.7 fold and 1.4 fold and 1.0 fold and 6.1 fold and 2.9 fold and 3.2 fold and 0.4 fold and 1.8 fold"},
      {"measurement": "Plasma CSF-1 Fold Change from Baseline", "setting": "[4]; 48 hours postdose", "value": "2.7 fold (2×) and 1.0 fold and 0.9 fold and 3.3 fold and 2.4 fold and 0.6 fold and 1.6 fold"},
      {"measurement": "Effect on macrophage content of the uterus", "setting": "[5]", "value": "decreased the macrophage content of the uterus"},
      {"measurement": "IC50", "setting": "[6]", "value": 2.6, "unit": "nM"}
    ]}
  ]
}
